# Legend:
# [1] = tested on: Ova-specific target cells; assay: in vivo cytotoxic specific cell lysis assay (CD8+ T cell response) in immunized mice; set-up: species or system mouse
# [2] = tested on: IFNγ; assay: in vivo IFNγ release in sera by ELISA 24 hours after inoculation; set-up: species or system C57BL/6 mice; settings: Quantikine kit, FIG. 4
# Description: To test the ability of the adjuvant test compounds to stimulate in vivo cytokine release, C57BL/6 mice were administered the compounds at different concentrations intravenously and the production of IFNγ in sera was measured 24 hours later by ELISA. Groups of 3 mice were inoculated intravenously (tail vein) on day 0 as follows: • Group 1: 100 μl of PBS alone • Group 2: 1 μg of αGalCer in 100 μl of PBS • Group 3: 100 ng of αGalCer in 100 μl of PBS • Group 4: 1 ng of αGalCer in 100 μl of PBS • Group 5: 0.1 ng of αGalCer in 100 μl of PBS • Group 6: 100 ng of αGalCer and 100 μg of Ova in 100 μl of PBS • Group 7: 1 μg of PBS-57 in 100 μl of PBS • Group 8: 100 ng of PBS-57 in 100 μl of PBS • Group 9: 1 ng of PBS-57 in 100 μl of PBS • Group 10: 0.1 ng of PBS-57 in 100 μl of PBS • Group 11: 100 ng of PBS-57 and 400 μg of Ova into 100 μl of PBS • Group 12: 1 μg of PBS-14 in 100 μl of PBS • Group 13: 100 ng of PBS-14 in 100 μl of PBS • Group 14: 1 ng of PBS-14 in 100 μl of PBS • Group 15: 0.1 ng of PBS-14 in 100 μl of PBS • Group 16: 100 ng of PBS-14 and 400 μg of Ova in 100 μl of PBS • Group 17: 1 μg of PBS-96 in 100 μl of PBS • Group 18: 100 ng of PBS-96 in 100 μl of PBS • Group 19: 1 ng of PBS-96 in 100 μl of PBS • Group 20: 0.1 ng of PBS-96 in 100 μl of PBS • Group 21: 100 ng of PBS-96 and 400 μg of Ova in 100 μl of PBS. 24 hours after inoculation, blood samples were collected from the mice and IFNγ levels were detected by ELISA kit. Two ELISA kits were used, Quantikine mouse IFNγ (RD systems) was used to test all samples and ELISA mIFNγ (Diaclone) was used to test group 1, 2, 3, 6, 7, 8, 11, 12, 13, 16, 17, 18 and 21. All sera were diluted before use in ELISA as follows:
# Results are expressed as IFNγ concentration (pg/ml) in sera and take into account the dilution factor. FIG. 4 depicts results using the Quantikine mouse IFNγ kit by RD systems. FIG. 4A depicts results of IFNγ levels for mice immunized with PBS-57, FIG. 4B depicts results of IFNγ levels for mice immunized with PBS-14, FIG. 4C depicts results of IFNγ levels for mice immunized with PBS-96 and FIG. 4D depicts results of IFNγ levels for mice immunized with αGalCer. At 0.1 ng, all adjuvant candidates induce cytokine release, but mice immunized with αGalCer produced three- or four-fold less IFNγ than mice immunized with PBS-57, PBS-14 or PBS-96 (1540.57±397.53 pg/ml, 4398.05±880.86 pg/ml, 6669.31±1231.82 pg/ml, 5823.33±720.69 pg/ml respectively).
# Another set of mice were used to compare the ability of adjuvant compounds to stimulate in vivo cytokine release by the method described above. Five groups of C57BL/6 mice were administered 100 ng of PBS-57, PBS-14, PBS-96, or PBS-11 in 100 μl PBS or 100 μl PBS alone intravenously. The production of IFNγ in sera was measured 24 hours later by ELISA. FIG. 5 depicts results for mice immunized with 100 ng of PBS-11, PBS-96, PBS-14 and PBS-57.
# [3] = tested on: CD8+ T cells responsive to OVA; assay: SIINFEKL pentamer assay of OVA-specific CD8+ T cells (FACS); format: in vivo, mouse; settings: IM, days 0 and 14, blood day 21
# Description: To verify the results obtained using the in vivo cytotoxicity assay described in the Examples above, similar experiments were performed and CD8+ T cell activation was determined by measuring the percentage of OVA-specific CD8+ T cells using a pentamer assay. Briefly, mice were injected intramuscularly with the indicated amounts of OVA and test adjuvant compound at either 1 μg or 100 ng per mouse, respectively on day 0 as follows:
# Experiment A: • Group 1: 100 μl of PBS; • Group 2: 50 μg of Ova into 100 μl PBS; • Group 3: 50 μg of Ova with 1 μg αGalCer; • Group 4: 50 μg of Ova with 1 μg PBS-11 • Group 5: 50 μg of Ova with 1 μg PBS-14 • Group 6: 50 μg of Ova with 1 μg PBS-57 • Group 7: 50 μg of Ova with 1 μg PBS-96
# Experiment B: • Group 1: 100 μl of PBS; • Group 2: 50 μg of Ova into 100 μl PBS; • Group 3: 50 μg of Ova with 100 ng αGalCer; • Group 4: 50 μg of Ova with 100 ng PBS-11 • Group 5: 50 μg of Ova with 100 ng PBS-14 • Group 6: 50 μg of Ova with 100 ng PBS-57 • Group 7: 50 μg of Ova with 100 ng PBS-96 A second injection was administered to the mice on day 14 and blood was collected from the mice on day 21. The lymphocytes were collected and analyzed by FACS analysis using H-2 K^b SIINFEKL pentamer and CD8 antibody to detect CD8+ T cells responsive to OVA.
# [4] = tested on: OVA-specific IgG1; assay: OVA-specific IgG1 ELISA after intramuscular immunization; format: in vivo, mouse; settings: FIG. 11; IM, 50 μg OVA with 100 ng adjuvant, 14 days post-injection
# Description: (§1) Mice (6 per group) were injected intramuscularly with 50 μg of OVA either alone or in combination with 100 ng of the indicated adjuvants (Freund's adjuvant was used as a positive control) as follows: • Group 1: […] of Ova with CFA/IFA (Positive control) • Group 2: 50 μg of Ova • Group 3: 50 μg of Ova and 100 ng of αGalCer • Group 4: 50 μg of Ova and 100 ng of PBS-11 • Group 5: 50 μg of Ova and 100 ng of PBS-14 • Group 6: 50 μg of Ova and 100 ng of PBS-57 • Group 7: 50 μg of Ova and 100 ng of PBS-96 At 14 days post-injection, blood samples were collected and ELISAs for IgG1 and IgG2a were performed using mouse monoclonal antibodies specific for OVA isotype IgG1 or IgG2a. The results are shown as the titer of the antibody in peripheral blood in ng/ml. The results for IgG1 are depicted in FIG. 11 and those for IgG2a are depicted in FIG. 12.
# [5] = tested on: OVA specific IgG2a; assay: OVA-specific IgG2a ELISA after intramuscular immunization; format: in vivo, mouse; settings: FIG. 12; IM, 50 μg OVA with 100 ng adjuvant, 14 days post-injection
# Description: as §1
structure (smiles),measurement,setting,value
CCCCCCCCCCCCCCCCCCCCCCCC(=O)N[C@@H](CO[C@H]1O[C@H](CNC(C)=O)[C@H](O)[C@H](O)[C@H]1O)[C@H](O)[C@H](O)CCCCCCCCCCCCCC [PBS-96],specific lysis of Ova-specific target cells in blood,"[1]; Example 1, FIG. 1, IV, 1 μg adjuvant with 50 μg Ova, day 11",resulted in cytotoxic lysis of Ova-specific target cells
same,average Ova-specific cytotoxic response,"[1]; Example 2, FIG. 2, IV, 400 μg Ova with or without 1 μg adjuvant, day 11 blood",89.2±10.3%
same,average OVA-specific cytotoxic response,"[1]; Example 2, FIG. 3, IM, 400 μg Ova with or without 1 μg adjuvant, day 11 blood",50.29±42.6%
same,average Ova-specific cell lysis,"[1]; Example 4, FIG. 6, IV, 400 μg Ova with or without 1 μg adjuvant (PBS-57 new formulation), day 11 blood",89.2±10.3%
same,enhancement of the CD8+ T cell response (specific lysis) at low doses,"[1]; Example 5 Experiments A and B, FIGS. 7 and 8, 50 μg OVA with 100 ng or 10 ng adjuvant intramuscularly",unexpectedly better than other adjuvants
same,IFNγ concentration in sera,[2]; 0.1 ng IV,5823.33 ± 720.69 pg/mL
same,IFNγ concentration in sera,[2]; 1 ng IV,6271.95 ± 3737.53 pg/mL
same,IFNγ concentration in sera,[2]; 100 ng IV,19679.89 ± 1443.48 pg/mL
same,IFNγ concentration in sera,[2]; 1 μg IV,17720.11 ± 2869.97 pg/mL
same,percentage of OVA specific CD8+ T cells,"[3]; Example 6 Experiment A, FIG. 9, 50 μg Ova with 1 μg adjuvant",enhanced the percentage of OVA specific CD8+ T cells
same,percentage of OVA specific CD8+ T cells,"[3]; Example 6 Experiment B, FIG. 10, 50 μg Ova with 100 ng adjuvant",surprisingly much better at enhancing the CD8+ T cell response
same,OVA-specific IgG1 titer in peripheral blood,[4],able to elicit a robust IgG1 titer
same,OVA specific IgG2a titer in peripheral blood,[5],about as well as Freund's adjuvant
